Laboratory results reported in patent publication US10988456B2, “O-aminoheteroaryl alkynyl-containing compound, preparation method therefor, and use thereof” (SHANGHAI INSTITUTE OF MATERIA MEDICA, CHINESE ACADEMY OF …, priority 2017, dated 2021).

Tests used:
FGFR1 = FGFR1 (Homo sapiens, UniProt P11362); experiment: Inhibition of receptor tyrosine kinase activity at molecular level (ELISA, Poly(Glu,Tyr)4:1 substrate phosphorylation); format: biochemical; conditions: for 10 nM inhibition ratio FGFR1: 10 nM compound, average of two independent experiments
Sequence of FGFR1 (P11362 22-822): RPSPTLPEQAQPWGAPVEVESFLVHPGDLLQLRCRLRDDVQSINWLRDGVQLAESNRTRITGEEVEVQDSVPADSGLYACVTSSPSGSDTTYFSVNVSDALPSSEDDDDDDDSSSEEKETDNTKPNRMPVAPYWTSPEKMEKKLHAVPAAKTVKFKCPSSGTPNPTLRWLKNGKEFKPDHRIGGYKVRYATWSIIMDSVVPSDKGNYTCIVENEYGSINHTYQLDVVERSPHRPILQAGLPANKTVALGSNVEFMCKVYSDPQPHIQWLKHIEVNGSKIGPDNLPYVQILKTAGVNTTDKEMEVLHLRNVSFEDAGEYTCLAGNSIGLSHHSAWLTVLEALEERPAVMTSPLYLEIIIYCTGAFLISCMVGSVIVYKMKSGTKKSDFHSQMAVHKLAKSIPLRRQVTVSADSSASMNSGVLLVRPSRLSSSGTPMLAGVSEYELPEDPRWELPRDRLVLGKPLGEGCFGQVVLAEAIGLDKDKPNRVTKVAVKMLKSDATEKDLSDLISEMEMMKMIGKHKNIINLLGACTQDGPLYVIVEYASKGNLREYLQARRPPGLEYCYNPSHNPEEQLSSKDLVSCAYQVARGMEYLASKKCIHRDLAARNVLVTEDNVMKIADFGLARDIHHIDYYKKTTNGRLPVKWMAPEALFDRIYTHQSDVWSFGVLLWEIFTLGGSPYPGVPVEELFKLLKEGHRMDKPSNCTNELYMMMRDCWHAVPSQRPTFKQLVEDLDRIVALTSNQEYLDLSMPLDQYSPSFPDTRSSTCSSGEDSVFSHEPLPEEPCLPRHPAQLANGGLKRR
Protocol: (§1) Enzyme reaction substrate Poly(Glu, Tyr)4:1 was diluted with potassium-free PBS (10 mM sodium phosphate buffer, 150 mM NaCl, pH 7.2-7.4) to 20 μg/mL. […] The reaction was conducted under 37° C. for 12-16 hours. After the liquid was removed from the wells, the plate was washed three times with 200 μL/well of T-PBS (PBS containing 0.1% Tween-20), each for 5 minutes. The enzyme plate was dried in 37° C. dryer for 1-2 hours.
(§2) 50 μL ATP solution diluted with buffer (50 mM HEPES pH 7.4, 50 mM MgCl2, 0.5 mM MnCl2, 0.2 mM Na3VO4, 1 mM DTT) to a final concentration of 5 μM was added into each well. The compound was diluted with DMSO to a suitable concentration (1 μL/well) or the well contained the corresponding concentration of DMSO (negative control well) Then various kinase recombinant proteins diluted with 49 μL of reaction buffer was added to initiate the reaction. Each experiment required duplicate enzyme-free control well. The reaction was carried out for 1 hour on a 37° C. Shaker (100 rpm). The plate was washed three times with T-PBS. A dilution of the primary antibody PY99 was added (100 μL/well), and the reaction was conducted in a shaker at 37° C. for 0.5 hr. The plate was washed three times with T-PBS. A dilution of the horseradish peroxidase-labeled goat anti-mouse IgG secondary antibody was added (100 μL/well), and the reaction was conducted in a shaker at 37° C. for 0.5 hour. Plate was washed with T-PBS for three times. 2 mg/mL OPD coloration solution (diluted with 0.1 M citric acid-sodium citrate buffer containing 0.03% H2O2 (pH=5.4)) was added (100 μL/well), reacted for 1-10 minutes at 25° C. in dark. The reaction was quenched with 2M H2SO4 (50 μL/well), and read at 490 nm using a tunable microplate reader SPECTRA MAX 190.
(§3) The inhibition ratio of the sample was determined by the following formula: […]
(§4) The IC50 values were obtained via four-parameter regression analysis using the software supplied with the microplate reader.

RET = RET (Homo sapiens, UniProt P07949); experiment: as above; format: biochemical; conditions: 10 nM compound; average of two independent experiments
Sequence of RET (P07949 29-1114): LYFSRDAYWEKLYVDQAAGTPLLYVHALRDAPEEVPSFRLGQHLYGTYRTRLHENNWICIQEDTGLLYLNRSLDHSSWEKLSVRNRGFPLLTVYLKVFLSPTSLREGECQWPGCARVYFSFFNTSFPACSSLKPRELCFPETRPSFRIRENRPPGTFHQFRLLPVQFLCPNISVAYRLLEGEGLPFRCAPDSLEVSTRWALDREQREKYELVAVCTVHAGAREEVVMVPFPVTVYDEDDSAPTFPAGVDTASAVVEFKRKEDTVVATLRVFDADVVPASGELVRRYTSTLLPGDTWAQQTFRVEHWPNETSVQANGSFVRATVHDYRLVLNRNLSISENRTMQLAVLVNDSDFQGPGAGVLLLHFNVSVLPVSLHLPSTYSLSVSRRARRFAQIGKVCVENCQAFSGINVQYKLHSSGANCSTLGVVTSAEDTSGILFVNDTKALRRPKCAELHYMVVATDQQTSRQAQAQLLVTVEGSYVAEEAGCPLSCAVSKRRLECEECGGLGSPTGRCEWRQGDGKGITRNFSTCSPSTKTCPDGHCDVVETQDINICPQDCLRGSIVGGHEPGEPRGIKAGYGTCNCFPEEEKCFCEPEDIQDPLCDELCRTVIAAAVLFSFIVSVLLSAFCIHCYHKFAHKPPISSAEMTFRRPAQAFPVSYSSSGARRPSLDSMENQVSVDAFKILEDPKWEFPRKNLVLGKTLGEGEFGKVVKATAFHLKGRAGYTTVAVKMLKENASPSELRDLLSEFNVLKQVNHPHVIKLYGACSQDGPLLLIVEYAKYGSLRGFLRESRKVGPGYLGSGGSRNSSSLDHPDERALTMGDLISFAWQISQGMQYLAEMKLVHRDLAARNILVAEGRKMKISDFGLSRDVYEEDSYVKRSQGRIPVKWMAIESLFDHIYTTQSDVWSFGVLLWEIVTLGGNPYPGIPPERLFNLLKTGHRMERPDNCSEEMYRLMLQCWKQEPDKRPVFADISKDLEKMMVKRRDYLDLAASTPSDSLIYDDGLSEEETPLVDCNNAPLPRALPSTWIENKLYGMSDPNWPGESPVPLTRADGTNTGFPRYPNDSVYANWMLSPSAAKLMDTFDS
Protocol: as §1, §2, §3, §4

KDR = KDR (Homo sapiens, UniProt P35968); experiment: as above; format: biochemical; conditions: 10 nM compound; average of two independent experiments
Sequence of KDR (P35968 20-1356): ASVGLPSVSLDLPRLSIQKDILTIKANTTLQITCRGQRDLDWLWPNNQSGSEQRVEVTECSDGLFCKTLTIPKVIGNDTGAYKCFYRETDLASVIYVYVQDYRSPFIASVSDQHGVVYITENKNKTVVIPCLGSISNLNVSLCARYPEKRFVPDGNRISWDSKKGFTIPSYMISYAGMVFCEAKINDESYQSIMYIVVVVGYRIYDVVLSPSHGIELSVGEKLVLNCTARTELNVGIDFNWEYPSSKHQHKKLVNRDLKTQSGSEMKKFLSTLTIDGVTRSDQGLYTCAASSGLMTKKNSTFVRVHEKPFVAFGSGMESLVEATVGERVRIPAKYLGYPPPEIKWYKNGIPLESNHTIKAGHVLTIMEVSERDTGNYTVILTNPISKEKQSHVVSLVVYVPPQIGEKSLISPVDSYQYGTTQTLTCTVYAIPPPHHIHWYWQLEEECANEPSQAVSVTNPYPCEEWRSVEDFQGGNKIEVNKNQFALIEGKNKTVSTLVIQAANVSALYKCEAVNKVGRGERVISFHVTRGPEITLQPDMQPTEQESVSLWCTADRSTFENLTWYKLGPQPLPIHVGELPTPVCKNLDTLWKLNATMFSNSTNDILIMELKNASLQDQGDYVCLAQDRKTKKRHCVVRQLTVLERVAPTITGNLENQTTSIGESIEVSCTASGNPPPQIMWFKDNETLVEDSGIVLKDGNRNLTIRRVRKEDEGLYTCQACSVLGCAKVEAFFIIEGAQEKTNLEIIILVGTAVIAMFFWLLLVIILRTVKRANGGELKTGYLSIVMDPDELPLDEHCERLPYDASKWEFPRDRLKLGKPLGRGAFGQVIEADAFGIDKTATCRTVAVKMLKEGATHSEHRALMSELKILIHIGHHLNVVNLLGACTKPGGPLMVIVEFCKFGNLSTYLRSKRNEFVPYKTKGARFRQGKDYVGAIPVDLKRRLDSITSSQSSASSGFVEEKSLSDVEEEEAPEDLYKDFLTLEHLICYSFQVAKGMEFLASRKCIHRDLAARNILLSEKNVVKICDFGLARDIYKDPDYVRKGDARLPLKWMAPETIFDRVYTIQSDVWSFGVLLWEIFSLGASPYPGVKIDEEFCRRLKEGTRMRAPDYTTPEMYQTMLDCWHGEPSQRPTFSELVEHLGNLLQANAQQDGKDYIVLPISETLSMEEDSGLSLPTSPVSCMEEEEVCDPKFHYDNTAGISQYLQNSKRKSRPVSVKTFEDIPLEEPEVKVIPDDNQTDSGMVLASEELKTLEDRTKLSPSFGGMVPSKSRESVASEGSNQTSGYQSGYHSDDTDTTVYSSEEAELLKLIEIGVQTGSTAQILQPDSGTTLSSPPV
Protocol: as §1, §2, §3, §4

[1] = test system: human lung cancer NCI-H1581 xenografts; experiment: Growth of subcutaneous xenografts of human lung cancer NCI-H1581 in nude mice; format: in vivo; conditions: for Relative tumor volume RTV (mean ± SD): NCI-H1581, 12.5 mg/kg orally once a day; for Weight (g, mean ± SD): NCI-H1581 tumor-bearing mice, 12.5 mg/kg orally once a day
Protocol: The diameter of the subcutaneously implanted tumor in nude mice was measured by a vernier caliper. […] In the compound HuFGFR267 50 mg/kg group, the compound was formulated with 0.5% methylcellulose (MC) to the required concentration before use. The formulation of compound was prepared once a week, and orally administered once a day for 14 days. The positive control drug AZD4547 was diluted to the required concentration with water for injection containing 1% Tween 80 before use. The formulation of AZD4547 was prepared once a week, and orally administered once a day for 14 days. In the solvent control group, an equal amount of water for injection was administrated.

[2] = test system: human gastric cancer SNU-16 xenografts; experiment: Growth of subcutaneous xenografts of human gastric cancer SNU-16 in nude mice (HuFGFR267 study); format: in vivo; conditions: for Relative tumor volume RTV (mean ± SD): SNU-16, 12.5 mg/kg orally once a day; for Weight (g, mean ± SD): SNU-16 tumor-bearing mice, 12.5 mg/kg orally once a day
Protocol: The diameter of the subcutaneously implanted tumor in nude mice was measured by a vernier caliper. […] In the compound HuFGFR267 50 mg/kg group, the compound was formulated with 0.5% methylcellulose (MC) to the required concentration before use. […] The positive control drug AZD4547 was diluted to the required concentration with water for injection containing 1% Tween 80 before use. […] In the solvent control group, an equal amount of water for injection was administrated.

CN1CCN(Cc2ccc(NC(=O)c3ccc(Cl)c(C#Cc4nccnc4N)c3)cc2C(F)(F)F)CC1 [Example 46]
10 nM inhibition ratio FGFR1 (FGFR1): 48.5
10 nM inhibition ratio RET (RET): 95.1
10 nM inhibition ratio KDR (KDR): 43.1

CN1CCC(Oc2ccc(NC(=O)c3ccc(Cl)c(C#Cc4cccnc4N)c3)cc2C(F)(F)F)CC1 [Example 41]
10 nM inhibition ratio FGFR1 (FGFR1): 53.4
10 nM inhibition ratio RET (RET): 77.3
10 nM inhibition ratio KDR (KDR): 35.4

CNCc1cnc(N)c(C#Cc2cc(C(=O)Nc3ccc(CN4CCN(C)CC4)c(C(F)(F)F)c3)ccc2Cl)c1 [Example 33]
10 nM inhibition ratio FGFR1 (FGFR1): 49.8
10 nM inhibition ratio RET (RET): 77.8
10 nM inhibition ratio KDR (KDR): 35.1

CC(C)(C)OC(=O)N1CCN(Cc2ccc(NC(=O)c3ccc(Cl)c(C#Cc4cccnc4N)c3)cc2C(F)(F)F)CC1 [Example 50]
10 nM inhibition ratio FGFR1 (FGFR1): 56.3
10 nM inhibition ratio RET (RET): 55.1
10 nM inhibition ratio KDR (KDR): 27.8

COc1ncccc1C#Cc1cc(C(=O)Nc2ccc(CN3CCN(C)CC3)c(C(F)(F)F)c2)ccc1Cl [HuFGFR148, reference compound]
inhibition ratio FGFR1 (100 nM) (FGFR1; 100 nM compound): 22.4
10 nM inhibition ratio RET (RET): 21.7
10 nM inhibition ratio KDR (KDR): 18.2

COCc1cnc(N)c(C#Cc2cc(C(=O)Nc3ccc(CN4CCN(C)CC4)c(C(F)(F)F)c3)ccc2Cl)c1 [Example 31]
10 nM inhibition ratio FGFR1 (FGFR1): 59.3
10 nM inhibition ratio RET (RET): 67.8
10 nM inhibition ratio KDR (KDR): 35.1

CNc1cncc(C#Cc2cc(C(=O)Nc3ccc(CN4CCN(C)CC4)c(C(F)(F)F)c3)ccc2C)c1 [Example A34, reference compound]
10 nM inhibition ratio FGFR1 (FGFR1): 33.2
10 nM inhibition ratio RET (RET): 16.4
10 nM inhibition ratio KDR (KDR): 39.5

Cc1ccc(C#Cc2cccnc2N)cc1C(=O)Nc1ccc(CN2CCN(C)CC2)c(C(F)(F)F)c1 [Example 14]
10 nM inhibition ratio FGFR1 (FGFR1): 46.1
10 nM inhibition ratio RET (RET): 57.6
10 nM inhibition ratio KDR (KDR): 20.3

CN1CCN(Cc2ccc(NC(=O)c3ccc(C#N)c(C#Cc4cccnc4N)c3)cc2C(F)(F)F)CC1 [Example 5]
10 nM inhibition ratio FGFR1 (FGFR1): 45.1
10 nM inhibition ratio RET (RET): 40.1
10 nM inhibition ratio KDR (KDR): 15.2

Cc1cnc(N)c(C#Cc2cc(C(=O)Nc3ccc(CN4CCN(C)CC4)c(C(F)(F)F)c3)ccc2Cl)c1 [Example 18]
10 nM inhibition ratio FGFR1 (FGFR1): 65.5
10 nM inhibition ratio RET (RET): 58.2
10 nM inhibition ratio KDR (KDR): 20.3

COc1cc(CCc2cc(NC(=O)c3ccc(N4C[C@@H](C)N[C@@H](C)C4)cc3)n[nH]2)cc(OC)c1 [AZD4547, reference compound]
relative tumor proliferation rate T/C ([1]; NCI-H1581, 12.5 mg/kg orally once a day for 14 days, 14th day): 24.03%
Relative tumor volume RTV (mean ± SD) ([1]; d0): 1.00 ± 0.00
Relative tumor volume RTV (mean ± SD) ([1]; d3): 1.27 ± 0.44
Relative tumor volume RTV (mean ± SD) ([1]; d7): 3.43 ± 1.14
Relative tumor volume RTV (mean ± SD) ([1]; d10): 5.57 ± 3.62
Relative tumor volume RTV (mean ± SD) ([1]; d14): 13.81 ± 4.56
animal deaths during the experiment ([1]; NCI-H1581, each group (HuFGFR267 50 mg/kg, AZD4547 12.5 mg/kg)): no mice died
Weight (g, mean ± SD) ([1]; d0): 18.2 ± 1.6 g
Weight (g, mean ± SD) ([1]; d3): 19.3 ± 1.6 g
Weight (g, mean ± SD) ([1]; d7): 20.1 ± 1.9 g
Weight (g, mean ± SD) ([1]; d10): 20.6 ± 2.2 g
Weight (g, mean ± SD) ([1]; d14): 21.3 ± 2.3 g
relative tumor proliferation rate T/C ([2]; SNU-16, 12.5 mg/kg orally once a day for 21 days, day 21): 18.46%
Relative tumor volume RTV (mean ± SD) ([2]; d0): 1.00 ± 0.00
Relative tumor volume RTV (mean ± SD) ([2]; d3): 0.92 ± 0.29
Relative tumor volume RTV (mean ± SD) ([2]; d7): 2.34 ± 1.23
Relative tumor volume RTV (mean ± SD) ([2]; d10): 2.96 ± 2.19
Relative tumor volume RTV (mean ± SD) ([2]; d14): 3.36 ± 3.14
Relative tumor volume RTV (mean ± SD) ([2]; d17): 3.77 ± 2.56
Relative tumor volume RTV (mean ± SD) ([2]; d21): 4.33 ± 3.29
animal deaths during the experiment ([2]; SNU-16, each group (HuFGFR267 50 and 25 mg/kg, AZD4547 12.5 mg/kg)): no mice died
Weight (g, mean ± SD) ([2]; d0): 18.8 ± 1.2 g
Weight (g, mean ± SD) ([2]; d3): 19.5 ± 1.3 g
Weight (g, mean ± SD) ([2]; d7): 20.0 ± 1.5 g
Weight (g, mean ± SD) ([2]; d10): 20.7 ± 1.5 g
Weight (g, mean ± SD) ([2]; d14): 21.1 ± 1.6 g
Weight (g, mean ± SD) ([2]; d17): 20.9 ± 1.7 g
Weight (g, mean ± SD) ([2]; d21): 21.0 ± 1.7 g

CN1CCN(Cc2ccc(NC(=O)c3ccc(Cl)c(C#Cc4cc(OC5COC5)cnc4N)c3)cc2C(F)(F)F)CC1 [Example 25]
10 nM inhibition ratio FGFR1 (FGFR1): 54.5
10 nM inhibition ratio RET (RET): 49.9
10 nM inhibition ratio KDR (KDR): 33.2

CN1CCN(Cc2ccc(NC(=O)c3ccc(Cl)c(C#Cc4cc(C#N)cnc4N)c3)cc2C(F)(F)F)CC1 [Example 21]
10 nM inhibition ratio FGFR1 (FGFR1): 44.3
10 nM inhibition ratio RET (RET): 58.1
10 nM inhibition ratio KDR (KDR): 32.0

CN1CCN(Cc2ccc(NC(=O)c3cc(C#N)cc(C#Cc4cccnc4N)c3)cc2C(F)(F)F)CC1 [Example 11]
10 nM inhibition ratio FGFR1 (FGFR1): 54.0
10 nM inhibition ratio RET (RET): 68.2
10 nM inhibition ratio KDR (KDR): 34.3

CN1CCN(Cc2ccc(NC(=O)c3ccc(Cl)c(C#Cc4cc(C(F)(F)F)cnc4N)c3)cc2C(F)(F)F)CC1 [Example 20]
10 nM inhibition ratio FGFR1 (FGFR1): 71.1
10 nM inhibition ratio RET (RET): 70.8
10 nM inhibition ratio KDR (KDR): 23.4
